Experimental data reported in publication PMC9694544, “Conteltinib (CT-707) in patients with advanced ALK-positive non-small cell lung cancer: a multicenter, open-label, first-in-human phase 1 study” (BMC Medicine, 2022).

Test system: patients with ALK-positive NSCLC
Experiment: Phase 1 safety assessment (TRAEs by CTCAE 4.03, DLT, MTD, RP2D)
Type: in vivo, human
Protocol: In the dose-escalation phase, the dose was escalated sequentially from a low to a high level with a 3 + 3 dose-escalation scheme based on the modified Fibonacci method. The starting dose for conteltinib was 50 mg orally quaque die (QD). Dose escalation proceeded to the next six cohorts of 100 mg, 200 mg, 300 mg, 450 mg, 600 mg, and 800 mg QD. For each dose, there was a PK lead-in phase where a single dose was given 7 days before cycle 1 day 1. Then, each dose was taken continuously in a 28-day cycle. The first cycle was for dose-limiting toxicity (DLT) investigation. When one of three patients experienced a DLT in a dose cohort, three additional patients were enrolled in the same dose cohort to assess the dose level in a total of six patients. All patients received conteltinib until disease progression, unacceptable toxicity, or withdrawal of consent. Patients received follow-up safety assessments for 30 days (±7 days) after the last conteltinib dose.
In the dose-expansion phase, each dose was taken continuously in a 28-day cycle. At the end of each cycle, a safety evaluation was conducted. If patients met the criteria to enter the next cycle, treatment with conteltinib was continued for subsequent cycles. All patients received conteltinib until disease progression, unacceptable toxicity, or withdrawal of consent. Patients received follow-up safety assessments for 30 days (±7 days) after the last dose of conteltinib.
The safety of conteltinib was assessed in safety set (SS) which was based on the National Cancer Institute Common Terminology Criteria for Adverse Events (CTCAE) version 4.03, laboratory tests, vital signs, ECG, and clinical observations. […] Adverse events (AEs) were judged to be treatment-related or not by investigators.
DLTs were AEs occurring in the first cycle of treatment (28 days) that were attributed to conteltinib, and the criteria were grade 4 neutropenia lasting ≥ 7 days, febrile neutropenia, grade 3 thrombocytopenia, grade 3 non-hematologic toxicity, and any conteltinib-related toxicity resulting in treatment delay > 2 weeks or discontinuation of conteltinib treatment at the assigned dose level. Besides, grade 3 nausea, vomiting, or diarrhea for ≥ 3 days or grade 4 nausea, vomiting, or diarrhea of any duration was considered as a DLT. The MTD was defined as the dose of conteltinib that would be closest to but not higher than a 33% probability of a DLT.

COc1cc(N2CCC(N3CCN(C)CC3)CC2)ccc1Nc1nc2c(c(Nc3ccccc3S(=O)(=O)NC(C)C)n1)CCN2 [Conteltinib]
2 (25.0) n (%): TRAE AST elevated (100 mg QD (n=8), Grade 1–2) | TRAE Serum creatinine elevated (100 mg QD (n=8), Grade 1–2)
1 (50.0) n (%): Patients with any TRAE (50 mg QD (n=2), Grade 1–2) | TRAE Diarrhea (50 mg QD (n=2), Grade 1–2)
0 (0.0) n (%): TRAE ALT elevated (50 mg QD (n=2), Grade 1–2) | TRAE AST elevated (50 mg QD (n=2), Grade 1–2) | TRAE Abdominal pain (50 mg QD (n=2), Grade 1–2) | TRAE Abdominal pain upper (50 mg QD (n=2), Grade 1–2) | TRAE Appetite decreased (50 mg QD (n=2), Grade 1–2) | TRAE Conjugated bilirubin elevated (50 mg QD (n=2), Grade 1–2) | TRAE Hypercholesterolemia (50 mg QD (n=2), Grade 1–2) | TRAE Hyperglycemia (50 mg QD (n=2), Grade 1–2) | TRAE Hypertriglyceridemia (50 mg QD (n=2), Grade 1–2) | TRAE Hyperuricemia (50 mg QD (n=2), Grade 1–2) | TRAE Hypoalbuminemia (50 mg QD (n=2), Grade 1–2) | TRAE Nausea (50 mg QD (n=2), Grade 1–2) | TRAE Proteinuria (50 mg QD (n=2), Grade 1–2) | TRAE Serum creatinine elevated (50 mg QD (n=2), Grade 1–2) | TRAE Vomiting (50 mg QD (n=2), Grade 1–2) | TRAE Weight loss (50 mg QD (n=2), Grade 1–2) | TRAE γ-GGT elevated (50 mg QD (n=2), Grade 1–2) | Patients with any TRAE (50 mg QD (n=2), Grade ≥ 3) | TRAE ALT elevated (50 mg QD (n=2), Grade ≥ 3) | TRAE AST elevated (50 mg QD (n=2), Grade ≥ 3) | TRAE Abdominal pain (50 mg QD (n=2), Grade ≥ 3) | TRAE Abdominal pain upper (50 mg QD (n=2), Grade ≥ 3) | TRAE Appetite decreased (50 mg QD (n=2), Grade ≥ 3) | TRAE Conjugated bilirubin elevated (50 mg QD (n=2), Grade ≥ 3) | TRAE Diarrhea (50 mg QD (n=2), Grade ≥ 3) | TRAE Hypercholesterolemia (50 mg QD (n=2), Grade ≥ 3) | TRAE Hyperglycemia (50 mg QD (n=2), Grade ≥ 3) | TRAE Hypertriglyceridemia (50 mg QD (n=2), Grade ≥ 3) | TRAE Hyperuricemia (50 mg QD (n=2), Grade ≥ 3) | TRAE Hypoalbuminemia (50 mg QD (n=2), Grade ≥ 3) | TRAE Nausea (50 mg QD (n=2), Grade ≥ 3) | TRAE Proteinuria (50 mg QD (n=2), Grade ≥ 3) | TRAE Serum creatinine elevated (50 mg QD (n=2), Grade ≥ 3) | TRAE Vomiting (50 mg QD (n=2), Grade ≥ 3) | TRAE Weight loss (50 mg QD (n=2), Grade ≥ 3) | TRAE γ-GGT elevated (50 mg QD (n=2), Grade ≥ 3) | TRAE Abdominal pain (100 mg QD (n=8), Grade 1–2) | TRAE Appetite decreased (100 mg QD (n=8), Grade 1–2) | TRAE Diarrhea (100 mg QD (n=8), Grade 1–2) | TRAE Hypoalbuminemia (100 mg QD (n=8), Grade 1–2) | TRAE Proteinuria (100 mg QD (n=8), Grade 1–2) | TRAE Weight loss (100 mg QD (n=8), Grade 1–2) | TRAE γ-GGT elevated (100 mg QD (n=8), Grade 1–2) | Patients with any TRAE (100 mg QD (n=8), Grade ≥ 3) | TRAE ALT elevated (100 mg QD (n=8), Grade ≥ 3) | TRAE AST elevated (100 mg QD (n=8), Grade ≥ 3) | TRAE Abdominal pain (100 mg QD (n=8), Grade ≥ 3) | TRAE Abdominal pain upper (100 mg QD (n=8), Grade ≥ 3) | TRAE Appetite decreased (100 mg QD (n=8), Grade ≥ 3) | TRAE Conjugated bilirubin elevated (100 mg QD (n=8), Grade ≥ 3) | TRAE Diarrhea (100 mg QD (n=8), Grade ≥ 3) | TRAE Hypercholesterolemia (100 mg QD (n=8), Grade ≥ 3) | TRAE Hyperglycemia (100 mg QD (n=8), Grade ≥ 3) | TRAE Hypertriglyceridemia (100 mg QD (n=8), Grade ≥ 3) | TRAE Hyperuricemia (100 mg QD (n=8), Grade ≥ 3) | TRAE Hypoalbuminemia (100 mg QD (n=8), Grade ≥ 3) | TRAE Nausea (100 mg QD (n=8), Grade ≥ 3) | TRAE Proteinuria (100 mg QD (n=8), Grade ≥ 3) | TRAE Serum creatinine elevated (100 mg QD (n=8), Grade ≥ 3) | TRAE Vomiting (100 mg QD (n=8), Grade ≥ 3) | TRAE Weight loss (100 mg QD (n=8), Grade ≥ 3) | TRAE γ-GGT elevated (100 mg QD (n=8), Grade ≥ 3) | TRAE ALT elevated (200 mg QD (n=3), Grade 1–2) | TRAE Abdominal pain (200 mg QD (n=3), Grade 1–2) | TRAE Abdominal pain upper (200 mg QD (n=3), Grade 1–2) | TRAE Appetite decreased (200 mg QD (n=3), Grade 1–2) | TRAE Conjugated bilirubin elevated (200 mg QD (n=3), Grade 1–2) | TRAE Diarrhea (200 mg QD (n=3), Grade 1–2) | TRAE Hypercholesterolemia (200 mg QD (n=3), Grade 1–2) | TRAE Hyperglycemia (200 mg QD (n=3), Grade 1–2) | TRAE Hypertriglyceridemia (200 mg QD (n=3), Grade 1–2) | TRAE Hypoalbuminemia (200 mg QD (n=3), Grade 1–2) | TRAE Nausea (200 mg QD (n=3), Grade 1–2) | TRAE Proteinuria (200 mg QD (n=3), Grade 1–2) | TRAE Serum creatinine elevated (200 mg QD (n=3), Grade 1–2) | TRAE Vomiting (200 mg QD (n=3), Grade 1–2) | TRAE Weight loss (200 mg QD (n=3), Grade 1–2) | TRAE γ-GGT elevated (200 mg QD (n=3), Grade 1–2) | Patients with any TRAE (200 mg QD (n=3), Grade ≥ 3) | TRAE ALT elevated (200 mg QD (n=3), Grade ≥ 3) | TRAE AST elevated (200 mg QD (n=3), Grade ≥ 3)
1 (33.3) n (%): TRAE AST elevated (200 mg QD (n=3), Grade 1–2) | TRAE Hyperuricemia (200 mg QD (n=3), Grade 1–2)
3 (37.5) n (%): TRAE Nausea (100 mg QD (n=8), Grade 1–2)
3 (100) n (%): Patients with any TRAE (200 mg QD (n=3), Grade 1–2)
6 (75.0) n (%): Patients with any TRAE (100 mg QD (n=8), Grade 1–2)
1 (12.5) n (%): TRAE ALT elevated (100 mg QD (n=8), Grade 1–2) | TRAE Abdominal pain upper (100 mg QD (n=8), Grade 1–2) | TRAE Conjugated bilirubin elevated (100 mg QD (n=8), Grade 1–2) | TRAE Hypercholesterolemia (100 mg QD (n=8), Grade 1–2) | TRAE Hyperglycemia (100 mg QD (n=8), Grade 1–2) | TRAE Hypertriglyceridemia (100 mg QD (n=8), Grade 1–2) | TRAE Hyperuricemia (100 mg QD (n=8), Grade 1–2) | TRAE Vomiting (100 mg QD (n=8), Grade 1–2)
